Data from patent US11479578B2, “Protein purification and virus inactivation with alkyl glycosides” (priority 2017, dated 2022).
Where two headings read alike, the source gives them in different places.

What was measured:
PRV (pseudorabies virus) = assay type: cell-based
rD′D3-FP = biological target: T1, rD′D3-FP (Homo sapiens, UniProt P02768+P04275)
T1 construct: made in house; host or cells: CHO cells

[1] = tested on: MuLV (murine leukemia virus); assay type: cell-based
[2] = tested on: VSV (Vesicular Stomatitis Virus); assay type: cell-based
[3] = tested on: BVDV (bovine viral diarrhea virus); assay type: cell-based
VACV (Vaccinia virus) = assay type: cell-based

T1 sequence (P04275+P02768 fused): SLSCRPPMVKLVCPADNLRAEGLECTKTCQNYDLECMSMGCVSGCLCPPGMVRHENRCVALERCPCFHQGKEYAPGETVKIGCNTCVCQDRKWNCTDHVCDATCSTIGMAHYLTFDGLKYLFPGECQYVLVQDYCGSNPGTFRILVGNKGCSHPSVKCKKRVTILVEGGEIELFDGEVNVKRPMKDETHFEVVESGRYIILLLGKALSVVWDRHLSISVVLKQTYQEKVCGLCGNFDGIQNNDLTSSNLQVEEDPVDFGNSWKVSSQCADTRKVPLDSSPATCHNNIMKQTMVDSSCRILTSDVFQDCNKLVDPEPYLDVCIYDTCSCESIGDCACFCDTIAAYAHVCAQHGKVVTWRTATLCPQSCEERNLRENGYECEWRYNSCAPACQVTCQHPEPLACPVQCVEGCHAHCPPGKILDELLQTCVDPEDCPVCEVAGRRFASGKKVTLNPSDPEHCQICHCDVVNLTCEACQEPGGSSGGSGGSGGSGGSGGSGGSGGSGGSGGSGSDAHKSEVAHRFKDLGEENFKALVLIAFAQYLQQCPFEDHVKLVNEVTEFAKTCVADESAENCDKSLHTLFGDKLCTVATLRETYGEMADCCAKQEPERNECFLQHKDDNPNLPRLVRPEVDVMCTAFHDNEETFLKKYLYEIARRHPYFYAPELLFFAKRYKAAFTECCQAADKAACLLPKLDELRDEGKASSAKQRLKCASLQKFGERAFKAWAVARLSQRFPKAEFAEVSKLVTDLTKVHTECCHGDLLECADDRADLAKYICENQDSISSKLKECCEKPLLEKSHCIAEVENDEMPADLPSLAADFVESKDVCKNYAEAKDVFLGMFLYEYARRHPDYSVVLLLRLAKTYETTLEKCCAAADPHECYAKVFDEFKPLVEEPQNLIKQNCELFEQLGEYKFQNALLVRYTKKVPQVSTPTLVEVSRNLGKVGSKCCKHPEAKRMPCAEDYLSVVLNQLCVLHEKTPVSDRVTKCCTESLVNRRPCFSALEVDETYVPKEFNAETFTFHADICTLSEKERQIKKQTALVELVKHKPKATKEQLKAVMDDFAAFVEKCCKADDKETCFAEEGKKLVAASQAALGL

Structure (SMILES): CCCCCCCCCCCCO[C@@H]1O[C@H](CO)[C@@H](O)[C@H](O)[C@H]1O [DDG, n-dodecyl-beta-D-glucopyranoside]
- PRV virus titre after treatment (PRV (pseudorabies virus)): ≤2.2
- virus inactivation capacity (in words) (PRV (pseudorabies virus)): effective

Structure (SMILES): CCCCCCCCO[C@@H]1O[C@H](CO)[C@@H](O)[C@H](O)[C@H]1O [OG, n-octyl-beta-D-glucopyranoside]
- rD′D3-FP in the eluate fraction (rD′D3-FP): 83%
- LRV (PRV (pseudorabies virus)): ≥6.3 log10
- time to complete PRV inactivation (PRV (pseudorabies virus)): 60 min
- virus inactivation capacity (in words) (PRV (pseudorabies virus)): effective
- PRV Load (PRV (pseudorabies virus); 15 min): ≤1.2 log10
- PRV Load (PRV (pseudorabies virus); 120 min): 6.7 log10
- LRV [1]: ≥4.2 log10
- MuLV virus titre after treatment [1]: ≤1.2
- time to complete MuLV inactivation [1]: ≤ 15 min
- VSV virus titre after treatment [2]: ≤1.5
- BVDV virus titre after treatment [3]: ≤1.2
- LRV [3]: ≥5.3 log10
- time to complete BVDV inactivation [3]: ≤ 15 min
- VACV inactivation (in words) (VACV (Vaccinia virus)): completely inactivates VACV very fast
- VACV virus titre after treatment (VACV (Vaccinia virus)): ≤1.5

Structure (SMILES): CCCCCCCCCCCCO[C@@H]1O[C@H](CO)[C@@H](O[C@H]2O[C@H](CO)[C@@H](O)[C@H](O)[C@H]2O)[C@H](O)[C@H]1O [DDM, n-dodecyl-beta-D-maltoside]
- PRV virus titre after treatment (PRV (pseudorabies virus)): ≤4.2
- virus inactivation capacity (in words) (PRV (pseudorabies virus)): effective

Structure (SMILES): CCCCCCCCCCO[C@@H]1O[C@H](CO)[C@@H](O)[C@H](O)[C@H]1O [DG, n-decyl-beta-D-glucopyranoside]
- PRV virus titre after treatment (PRV (pseudorabies virus)): ≤2.2
- virus inactivation capacity (in words) (PRV (pseudorabies virus)): effective

Structure (SMILES): CCCCCCCCCCO[C@@H]1O[C@H](CO)[C@@H](O[C@H]2O[C@H](CO)[C@@H](O)[C@H](O)[C@H]2O)[C@H](O)[C@H]1O [DM, n-decyl-beta-D-maltoside]
- PRV virus titre after treatment (PRV (pseudorabies virus)): ≤2.2
- virus inactivation capacity (in words) (PRV (pseudorabies virus)): effective

Structure (SMILES): CCCCCCCCO[C@@H]1O[C@H](CO)[C@@H](O[C@H]2O[C@H](CO)[C@@H](O)[C@H](O)[C@H]2O)[C@H](O)[C@H]1O [OM, n-octyl-beta-D-maltoside]
- virus inactivation capacity (in words) (PRV (pseudorabies virus)): effective
